Values joined by “and” are separate entries in the source; they are usually repeats but may differ in a detail not shown here. Equal values may be shown once.
Legend:
[1] = NIR FL, PA and absorption signals of Pt^IVNPs in solution in response to GSH; settings: P-CyPt 10 μM
Procedure: To monitor the NIR FL and PA imaging signals of P-CyPt in response to ALP, P-CyPt (10 μM) in Tris buffer (1 mL) was incubated with ALP (100 U/L) at 37 °C for 0, 5, 10, 15, 20, and 30 min. To monitor the NIR FL and PA imaging signals of Pt^IVNPs in response to GSH, P-CyPt (10 μM) in Tris buffer (1 mL) was first incubated with ALP (100 U/L) at 37 °C for 30 min and then incubated with 10 mM GSH at 37 °C for another 10, 20, 30, 40, 50, and 60 min. The NIR FL spectra of these solutions at each time point were acquired on a HORIBA Jobin Yvon Fluoromax-4 fluorescence spectrometer, with excitation at 680 nm. For PA imaging, the incubation solutions at each time point were loaded into a fine bore polythene tube ([…], 1.27 mm OD). The tubes were then sealed and immersed in water. The PA images at both 700 and 750 nm were acquired on the Vevo 2100 LAZR system (FUJIFILM VisualSonics).

[2] = system: orthotopic HepG2/Luc liver tumors; experiment: NIR FL imaging of orthotopic HepG2/Luc liver tumors in vivo; design: species or system mice
Procedure: (§1) (100 μM, in 200 μL saline). Whole body FL images of mice prior to (pre) and at 1 h, 2 h, 4 h, 8 h post injection of P-CyPt or […] acquired on the IVIS Lumina XR III imaging system, using a 660 nm excitation filter and a 750 ± 50 nm emission filter. Each experiment was conducted in three mice. The FL intensities were quantified by the region of interest (ROI) measurement using Living Image Software (4.5.2, PerkinElmer, MA, U.S.A). […] (500 μM, in 200 μL saline). The PA images of the s.c. HeLa tumors in mice prior to (pre), and at 1, 2, 4 h post injection were captured on the Vevo 2100 LAZR system (FUJIFILM VisualSonics), with excitation at 700 and 750 nm. The PA intensities were quantified by the equipped software.

[3] = biological target: T1, ALP (Bos taurus, UniProt P19111); experiment: Sensitivity of P-CyPt towards ALP (detection limit); type: biochemical; settings: for Normalized FL intensity at 710 nm (individual replicates) / Normalized FL intensity at 710 nm, mean: Supplementary Fig. 6b
T1 construct: Alkaline phosphatase from bovine; purchased Sigma-Aldrich; host or cells: bovine intestinal mucosa (tissue-derived)
T1 sequence (P19111 20-506 limits assumed): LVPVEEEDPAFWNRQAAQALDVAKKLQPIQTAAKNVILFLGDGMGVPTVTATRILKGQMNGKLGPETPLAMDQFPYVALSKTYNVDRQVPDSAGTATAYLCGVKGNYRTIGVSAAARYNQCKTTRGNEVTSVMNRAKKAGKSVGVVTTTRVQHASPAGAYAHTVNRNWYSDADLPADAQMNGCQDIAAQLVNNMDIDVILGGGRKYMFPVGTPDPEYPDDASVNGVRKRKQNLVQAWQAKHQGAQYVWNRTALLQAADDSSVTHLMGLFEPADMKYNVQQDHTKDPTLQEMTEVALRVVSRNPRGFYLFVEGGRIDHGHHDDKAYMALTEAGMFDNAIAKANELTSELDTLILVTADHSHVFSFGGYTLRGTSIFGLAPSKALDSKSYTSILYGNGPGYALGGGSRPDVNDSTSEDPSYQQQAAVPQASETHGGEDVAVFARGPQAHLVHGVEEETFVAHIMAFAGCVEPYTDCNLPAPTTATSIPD

[4] = system: s.c. HeLa tumors; experiment: PA imaging of s.c. HeLa tumors in vivo; design: species or system mice; settings: i.v., 2 h post-injection
Procedure: as §1

[5] = ALP 30 min then GSH 10 mM 10 min (time 40)
[6] = ALP 30 min then GSH 10 mM 20 min (time 50)
[7] = ALP 30 min then GSH 10 mM 30 min (time 60)
[8] = ALP 30 min then GSH 10 mM 40 min (time 70)
[9] = ALP 30 min then GSH 10 mM 50 min (time 80)
[10] = ALP 30 min then GSH 10 mM 60 min (time 90)

CC1(C)C(/C=C/C2=C3Oc4cc(OP(=O)(O)O)c(Cl)cc4C=C3CCC2)=[N+](CCCNC(=O)[C@@H](Cc2ccccc2)NC(=O)[C@@H](Cc2ccccc2)NC(=O)CCC(=O)[O][Pt]([NH2])([NH2])([OH])([Cl])[Cl])c2ccccc21 [P-CyPt]
normalized Abs. at 700 nm (Fig. 2j) [1, 5]: 1.037
normalized Abs. at 750 nm (Fig. 2j) [1, 5]: 0.6059
normalized FL intensity at 710 nm (Fig. 2k) [1, 5]: 15.4414
normalized PA intensity at 700 nm (Fig. 2l) [1, 5]: 0.9827
normalized PA intensity at 750 nm (Fig. 2l) [1, 5]: 0.8167
normalized Abs. at 700 nm (Fig. 2j) [1, 6]: 1.054
normalized Abs. at 750 nm (Fig. 2j) [1, 6]: 0.4238
normalized FL intensity at 710 nm (Fig. 2k) [1, 6]: 19.7308
normalized PA intensity at 700 nm (Fig. 2l) [1, 6]: 0.9792
normalized PA intensity at 750 nm (Fig. 2l) [1, 6]: 0.6967
normalized Abs. at 700 nm (Fig. 2j) [1, 7]: 1.062
normalized Abs. at 750 nm (Fig. 2j) [1, 7]: 0.3077
normalized FL intensity at 710 nm (Fig. 2k) [1, 7]: 25.1768
normalized PA intensity at 700 nm (Fig. 2l) [1, 7]: 0.9821
normalized PA intensity at 750 nm (Fig. 2l) [1, 7]: 0.5167
normalized Abs. at 700 nm (Fig. 2j) [1, 8]: 1.0719
normalized Abs. at 750 nm (Fig. 2j) [1, 8]: 0.2002
normalized FL intensity at 710 nm (Fig. 2k) [1, 8]: 29.4155
normalized PA intensity at 700 nm (Fig. 2l) [1, 8]: 0.9744
normalized PA intensity at 750 nm (Fig. 2l) [1, 8]: 0.3617
normalized Abs. at 700 nm (Fig. 2j) [1, 9]: 1.0764
normalized Abs. at 750 nm (Fig. 2j) [1, 9]: 0.1155
normalized FL intensity at 710 nm (Fig. 2k) [1, 9]: 34.4707
normalized PA intensity at 700 nm (Fig. 2l) [1, 9]: 0.9821
normalized PA intensity at 750 nm (Fig. 2l) [1, 9]: 0.2567
normalized Abs. at 700 nm (Fig. 2j) [1, 10]: 1.084
normalized Abs. at 750 nm (Fig. 2j) [1, 10]: 0.09482
normalized FL intensity at 710 nm (Fig. 2k) [1, 10]: 35.3761
normalized PA intensity at 700 nm (Fig. 2l) [1, 10]: 1.001
normalized PA intensity at 750 nm (Fig. 2l) [1, 10]: 0.1807
quantified FL intensity of HepG2/Luc liver tumors (Fig. 5b) ([2]; 2 h): 9.80E+08
quantified FL intensity of HepG2/Luc liver tumors (Fig. 5b) ([2]; 4 h): 8.66E+08
quantified FL intensity of HepG2/Luc liver tumors (Fig. 5b) ([2]; 8 h): 3.61E+08
quantified FL intensity of HepG2/Luc liver tumors (Fig. 5b) ([2]; i.v. 100 μM, 200 μL, 1 h): 1.05E+09
Normalized FL intensity at 710 nm (individual replicates) ([3]; ALP concentration 0 U/L): 0.8554 and 0.8726 and 0.8742
Normalized FL intensity at 710 nm, mean ([3]; ALP concentration 0 U/L): 0.867
Normalized FL intensity at 710 nm (individual replicates) ([3]; ALP concentration 0.5 U/L): 0.9653 and 1.0053 and 1.0982
Normalized FL intensity at 710 nm, mean ([3]; ALP concentration 0.5 U/L): 1.023
Normalized FL intensity at 710 nm (individual replicates) ([3]; ALP concentration 1 U/L): 1.1743 and 1.1873 and 1.137
Normalized FL intensity at 710 nm, mean ([3]; ALP concentration 1 U/L): 1.166
Normalized FL intensity at 710 nm (individual replicates) ([3]; ALP concentration 2 U/L): 1.4406 and 1.5171 and 1.5718
Normalized FL intensity at 710 nm, mean ([3]; ALP concentration 2 U/L): 1.510
Normalized FL intensity at 710 nm (individual replicates) ([3]; ALP concentration 5 U/L): 2.2381 and 2.3195 and 2.3579
Normalized FL intensity at 710 nm, mean ([3]; ALP concentration 5 U/L): 2.305
Normalized FL intensity at 710 nm (individual replicates) ([3]; ALP concentration 10 U/L): 3.458 and 3.6281 and 3.6545
Normalized FL intensity at 710 nm, mean ([3]; ALP concentration 10 U/L): 3.580
Normalized FL intensity at 710 nm (individual replicates) ([3]; ALP concentration 15 U/L): 4.5389 and 4.8786 and 4.9735
Normalized FL intensity at 710 nm, mean ([3]; ALP concentration 15 U/L): 4.797
Normalized FL intensity at 710 nm (individual replicates) ([3]; ALP concentration 20 U/L): 5.7617 and 5.8661 and 6.3529
Normalized FL intensity at 710 nm, mean ([3]; ALP concentration 20 U/L): 5.994
detection limit for ALP ([3]; P-CyPt 10 μM, 30 min, 3σ/k method): ~ 0.098 U/L
tumor PA intensity at 700 nm higher than with Pt^IVNPs [4]: ~3.4 fold
tumor PA intensity at 750 nm higher than with Pt^IVNPs [4]: ~4.3 fold

From article PMC9925730, “Controlled sequential in situ self-assembly and disassembly of a fluorogenic cisplatin prodrug for cancer theranostics” (Nature Communications, 2023)
